Consider 28 compounds from patent US20110230476A1, “PI3 KINASE INHIBITORS AND USES THEREOF” (AVILA THERAPEUTICS, INC., priority 2009, published 2011).

The structures appear in SMILES notation.

T1 sequence (P42336 whole entry): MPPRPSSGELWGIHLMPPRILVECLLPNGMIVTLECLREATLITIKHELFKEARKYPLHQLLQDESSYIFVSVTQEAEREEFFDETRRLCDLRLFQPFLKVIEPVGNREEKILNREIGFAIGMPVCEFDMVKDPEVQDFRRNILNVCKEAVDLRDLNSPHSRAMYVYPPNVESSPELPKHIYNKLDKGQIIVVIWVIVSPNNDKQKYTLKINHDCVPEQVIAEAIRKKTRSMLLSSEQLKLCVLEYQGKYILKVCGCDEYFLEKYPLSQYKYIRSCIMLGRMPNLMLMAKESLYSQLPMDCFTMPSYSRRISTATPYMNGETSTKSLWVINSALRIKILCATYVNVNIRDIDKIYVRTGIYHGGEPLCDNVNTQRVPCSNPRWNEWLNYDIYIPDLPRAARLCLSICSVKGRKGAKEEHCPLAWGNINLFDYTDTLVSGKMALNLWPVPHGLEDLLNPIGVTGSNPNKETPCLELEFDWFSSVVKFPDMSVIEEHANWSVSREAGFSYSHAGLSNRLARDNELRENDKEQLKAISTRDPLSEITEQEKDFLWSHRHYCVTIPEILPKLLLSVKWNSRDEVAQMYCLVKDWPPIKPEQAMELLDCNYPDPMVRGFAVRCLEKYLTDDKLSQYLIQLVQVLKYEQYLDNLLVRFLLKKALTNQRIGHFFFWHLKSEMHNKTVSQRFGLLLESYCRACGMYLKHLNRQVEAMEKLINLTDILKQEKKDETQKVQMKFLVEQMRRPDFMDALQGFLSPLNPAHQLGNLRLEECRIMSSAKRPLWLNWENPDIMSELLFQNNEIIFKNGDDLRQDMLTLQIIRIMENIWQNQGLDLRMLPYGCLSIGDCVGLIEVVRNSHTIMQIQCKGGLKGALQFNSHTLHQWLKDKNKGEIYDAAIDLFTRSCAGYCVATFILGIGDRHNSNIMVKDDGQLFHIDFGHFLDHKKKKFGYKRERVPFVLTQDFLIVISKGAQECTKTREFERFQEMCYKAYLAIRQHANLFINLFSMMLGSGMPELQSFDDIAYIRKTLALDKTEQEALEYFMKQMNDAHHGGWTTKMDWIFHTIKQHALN
T1 sequence (P27986 whole entry partner): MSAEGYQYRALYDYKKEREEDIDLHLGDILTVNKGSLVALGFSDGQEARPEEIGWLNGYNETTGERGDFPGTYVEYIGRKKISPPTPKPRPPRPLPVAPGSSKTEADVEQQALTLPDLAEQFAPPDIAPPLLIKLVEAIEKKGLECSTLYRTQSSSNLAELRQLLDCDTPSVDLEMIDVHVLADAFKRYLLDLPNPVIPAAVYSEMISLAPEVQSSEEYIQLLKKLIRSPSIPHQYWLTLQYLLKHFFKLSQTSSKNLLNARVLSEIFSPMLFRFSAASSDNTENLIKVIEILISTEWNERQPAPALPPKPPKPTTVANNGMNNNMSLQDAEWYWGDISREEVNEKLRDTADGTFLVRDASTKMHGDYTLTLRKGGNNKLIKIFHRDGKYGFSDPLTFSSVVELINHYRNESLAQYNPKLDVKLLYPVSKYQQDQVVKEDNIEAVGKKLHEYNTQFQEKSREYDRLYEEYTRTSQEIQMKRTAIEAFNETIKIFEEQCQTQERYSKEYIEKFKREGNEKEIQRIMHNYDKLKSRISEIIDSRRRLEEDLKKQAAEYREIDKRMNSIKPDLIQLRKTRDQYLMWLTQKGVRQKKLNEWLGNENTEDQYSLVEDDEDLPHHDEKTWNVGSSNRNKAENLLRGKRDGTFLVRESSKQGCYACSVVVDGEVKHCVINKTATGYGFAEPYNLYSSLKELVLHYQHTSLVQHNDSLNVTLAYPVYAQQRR

The assay has as its target T1, PI3Kα (p110α/p85α) (Homo sapiens, UniProt P42336).
T1 construct: purchased BPS Bioscience (San Diego, Calif.) or Millipore (Billerica, Mass.)
The assay can be described thus: HTRF assay, potency against active PI3Kα. The class given is biochemical. Particulars: HTRF; [ATP]=50 μM, [di-C8-PIP2]=10 μM; 30 min pre-incubation; read-out: PI3Kα Inhibition. On the procedure:
Homogeneous Time Resolved Fluorescence (HTRF) Assay Protocol for Potency Assessment Against the Active Forms of PI3Kα, PI3Kβ, and PI3Kγ
The mechanics of the assay platform are best described by the vendor (Millipore, Billerica, Mass.) on their website at the following URL: www.millipore.com/coa/tech1/74jt4z.
Briefly, Stop solution (Stop A, #33-007 and Stop B, #33-009; 3:1 ratio) and Detection Mix (from DMC, #33-015 with DMA, #33-011 and DMB, #33-013; 18:1:1 ratio) were prepared as recommended by the manufacturer about 2 hrs prior to use. […] Lipid kinase reactions were started with the addition of 5 μL of ATP solution, mixed for 15 sec on a rotary plate shaker and incubated for 30-60 minutes at 25° C. Next, reactions were stopped with a 5 μL addition of Stop solution immediately followed by a 5 μL volume of Detection Mix. […] At the conclusion of each assay, the HTRF ratio from fluorescence emission values for each well was calculated and % Inhibition determined from averaged controls wells (+/−PI3K enzyme). % Inhibition values for each compound were then plotted against inhibitor concentration to estimate IC50 from log [Inhibitor] vs Response, Variable Slope model in GraphPad Prism from GraphPad Software (San Diego, Calif.).
In general terms: Time-resolved FRET reads energy transfer from a long-lived donor to a nearby acceptor.
In the case of `C/C=C/C(=O)CCC(=O)N1CCC2(CC1)CN(c1cc(-c3cnc(N)nc3)nc(N3CCOCC3)c1)C2` [XII-40, (E)-1-(2-(2-(2-aminopyrimidin-5-yl)-6-morpholinopyridin-4-yl)-2,7-diazaspiro[3.5]nonan-7-yl)hept-5-ene-1,4-dione], the IC50 is 100 to 1000 nM.
In the case of `C/C=C/C(=O)CCC(=O)N1CCC(O)(C#Cc2cc3nc(-c4cccc(O)c4)nc(N4CCOCC4)c3s2)CC1` [II-a-104, (E)-1-(4-hydroxy-4-((2-(3-hydroxyphenyl)-4-morpholinothieno[3,2-d]pyrimidin-6-yl)ethynyl)piperidin-1-yl)hept-5-ene-1,4-dione] it was less than 10 nM.
In the case of `CC(C)=CC(=O)C(=O)N1CCN(c2ccc(-c3cc(-c4cnc(N)nc4)nc(N4CCOCC4)c3)cn2)CC1` [XII-25, 1-(4-(2′-(2-aminopyrimidin-5-yl)-6′-morpholino-3,4′-bipyridin-6-yl)piperazin-1-yl)-4-methylpent-3-ene-1,2-dione] it was 10 to 100 nM; in that of `CC(C)=CC(=O)C1(C(=O)N2CCC(C#Cc3cc(-c4cnc(N)nc4)nc(N4CCOCC4)c3)CC2)CC1` [XII-33, 1-(1-(4-((2-(2-aminopyrimidin-5-yl)-6-morpholinopyridin-4-yl)ethynyl)piperidine-1-carbonyl)cyclopropyl)-3-methylbut-2-en-1-one], 100 to 1000 nM.
As to `CC(C)=CC(=O)CCCC(=O)N1CC=C(c2cc3nc(-c4cnc(N)nc4)cc(C4=CCOCC4)c3s2)CC1` [II-g-4, 1-(4-(5-(2-aminopyrimidin-5-yl)-7-(3,6-dihydro-2H-pyran-4-yl)thieno[3,2-b]pyridin-2-yl)-5,6-dihydropyridin-1(2H)-yl)-7-methyloct-6-ene-1,5-dione], the IC50 is more than 1000 nM.
In the case of `C/C=C(\C)C(=O)CCC(=O)N1CCN(Cc2cc3nc(-c4cccc5[nH]ncc45)nc(N4CCOCC4)c3s2)CC1` [II-a-149, (E)-1-(4-((2-(1H-indazol-4-yl)-4-morpholinothieno[3,2-d]pyrimidin-6-yl)methyl)piperazin-1-yl)-5-methylhept-5-ene-1,4-dione] it was 100 to 1000 nM.
In the case of `CC(C)=CC(=O)c1ccc(CCNC(=O)c2cc(-c3cnc(N)cc3C(F)(F)F)nc(N3CCOCC3)c2)cc1` [XII-9, 6′-amino-N-(4-(3-methylbut-2-enoyl)phenethyl)-6-morpholino-4′-(trifluoromethyl)-2,3′-bipyridine-4-carboxamide] it was more than 1000 nM; in that of `CC(C)=CC(=O)C1(C(=O)N2CC=C(C#Cc3cc(-c4cnc(N)nc4)nc(N4CCOCC4)c3)CC2)CC1` [XII-37, 1-(1-(4-((2-(2-aminopyrimidin-5-yl)-6-morpholinopyridin-4-yl)ethynyl)-1,2,3,6-tetrahydropyridine-1-carbonyl)cyclopropyl)-3-methylbut-2-en-1-one], 10 to 100 nM; in that of `C=CC(=O)N1CCC2(CC1)CCN(C(=O)c1cc3nc(-c4cccc(O)c4)nc(N4CCOCC4)c3s1)CC2` [II-a-119, 1-(9-(2-(3-hydroxyphenyl)-4-morpholinothieno[3,2-d]pyrimidine-6-carbonyl)-3,9-diazaspiro[5.5]undecan-3-yl)prop-2-en-1-one], 100 to 1000 nM.
As for `C=CC(=O)N1CCC(N2CCN(C(=O)c3cc4nc(-c5cccc(O)c5)nc(N5CCOCC5)c4s3)CC2)CC1` [II-a-120, 1-(4-(4-(2-(3-hydroxyphenyl)-4-morpholinothieno[3,2-d]pyrimidine-6-carbonyl)piperazin-1-yl)piperidin-1-yl)prop-2-en-1-one], the IC50 lay within 100 to 1000 nM.
In the case of `C=CC(=O)N[C@H]1CCCC[C@H]1C(=O)N1CCN(Cc2cc3nc(-c4cccc5[nH]ncc45)nc(N4CCOCC4)c3s2)CC1` [II-a-96] it was 100 to 1000 nM.
In the case of `C=CC(=O)NCCOCCOc1ccc2c(c1OC)N=C(NC(=O)c1cccnc1)N1CCN=C21` [IX-1, N-(8-(2-(2-acrylamidoethoxy)ethoxy)-7-methoxy-2,3-dihydroimidazo[1,2-c]quinazolin-5-yl)nicotinamide] it was 10 to 100 nM; in that of `C/C=C/C(=O)CCC(=O)N1CCN(c2ccc(-c3ccnc4ccc(/C=C5\SC(=O)NC5=O)cc34)cn2)CC1` [V-13, (Z)-5-((4-(6-(4-((E)-4-oxohept-5-enoyl)piperazin-1-yl)pyridin-3-yl)quinolin-6-yl)methylene)thiazolidine-2,4-dione], less than 10 nM; in that of `C=CC(=O)N1CCC(C#Cc2cc3nc(-c4cccc(O)c4)nc(N4CCOCC4)c3s2)CC1` [II-a-70, 1-(4-((2-(3-hydroxyphenyl)-4-morpholinothieno[3,2-d]pyrimidin-6-yl)ethynyl)piperidin-1-yl)prop-2-en-1-one], 10 to 100 nM.
In the case of `Cn1ccnc1/C=C/C(=O)CCC(=O)N1CCN(Cc2cc3nc(-c4cccc5[nH]ncc45)nc(N4CCOCC4)c3s2)CC1` [II-a-129, (E)-1-(4-((2-(1H-indazol-4-yl)-4-morpholinothieno[3,2-d]pyrimidin-6-yl)methyl)piperazin-1-yl)-6-(1-methyl-1H-imidazol-2-yl)hex-5-ene-1,4-dione] it was 100 to 1000 nM; in that of `C/C=C/C(=O)CCC(=O)N1CCc2ccc(-c3cc4nc(-c5cccc(O)c5)nc(N5CCOCC5)c4s3)cc2C1` [II-a-67, (E)-1-(7-(2-(3-hydroxyphenyl)-4-morpholinothieno[3,2-d]pyrimidin-6-yl)-3,4-dihydroisoquinolin-2(1H)-yl)hept-5-ene-1,4-dione], less than 10 nM; in that of `CC(C)=CC(=O)C(=O)N1CCN(c2ccc(-c3cc(-c4cnc(N)nc4)nc(N4CCOCC4)c3)cc2)CC1` [XII-24, 1-(4-(4-(2-(2-aminopyrimidin-5-yl)-6-morpholinopyridin-4-yl)phenyl)piperazin-1-yl)-4-methylpent-3-ene-1,2-dione], 10 to 100 nM.
For `O=C(/C=C/c1ccccc1)CCC(=O)N1CCC(O)(c2cc3nc(-c4cccc5[nH]ncc45)nc(N4CCOCC4)c3s2)CC1` [II-a-136, (E)-1-(4-(2-(1H-indazol-4-yl)-4-morpholinothieno[3,2-d]pyrimidin-6-yl)-4-hydroxypiperidin-1-yl)-6-phenylhex-5-ene-1,4-dione], the IC50 lay in the range of 100 to 1000 nM.
For `CC(C)=CC(=O)CCC(=O)N1CCC(C#Cc2cc(-c3cnc(N)nc3)nc(N3CCOCC3)c2)CC1` [XII-31, 1-(4-((2-(2-aminopyrimidin-5-yl)-6-morpholinopyridin-4-yl)ethynyl)piperidin-1-yl)-6-methylhept-5-ene-1,4-dione], the IC50 lay in the range of 100 to 1000 nM.
In the case of `C/C(=C\c1ncc[nH]1)C(=O)CCC(=O)N1CCN(Cc2cc3nc(-c4cccc5[nH]ncc45)nc(N4CCOCC4)c3s2)CC1` [II-a-170, (E)-1-(4-((2-(1H-indazol-4-yl)-4-morpholinothieno[3,2-d]pyrimidin-6-yl)methyl)piperazin-1-yl)-6-(1H-imidazol-2-yl)-5-methylhex-5-ene-1,4-dione] it was 100 to 1000 nM.
As to `CC(C)=CC(=O)c1ccc(CCNC(=O)c2cc(-c3cccc4[nH]ncc34)nc(N3CCOCC3)c2)cc1` [XII-12], the IC50 was more than 1000 nM.
Take `C=CC(=O)N1CCc2ccc(-c3ccnc4ccc(/C=C5\SC(=O)NC5=O)cc34)cc2C1` [V-19, (Z)-5-((4-(2-acryloyl-1,2,3,4-tetrahydroisoquinolin-7-yl)quinolin-6-yl)methylene)thiazolidine-2,4-dione]: the IC50 lay in the range of 10 to 100 nM.
In the case of `CC(C)=CC(=O)CN1CCN(C2CCN(c3cc(-c4cnc(N)nc4)nc(N4CCOCC4)c3)CC2)CC1` [XII-34, 1-(4-(1-(2-(2-aminopyrimidin-5-yl)-6-morpholinopyridin-4-yl)piperidin-4-yl)piperazin-1-yl)-4-methylpent-3-en-2-one] it was 100 to 1000 nM; in that of `C/C=C/C(=O)CCCC(=O)N1CCN(c2ccc(-c3ccnc4ccc(/C=C5\SC(=O)NC5=O)cc34)cc2)CC1` [V-16, (Z)-5-((4-(4-(4-((E)-5-oxooct-6-enoyl)piperazin-1-yl)phenyl)quinolin-6-yl)methylene)thiazolidine-2,4-dione], less than 10 nM.
In the case of `C=C(C)C(=O)CCC(=O)N1CCC(C#Cc2cc3nc(-c4cccc(O)c4)nc(N4CCOCC4)c3s2)CC1` [II-a-103, 1-(4-((2-(3-hydroxyphenyl)-4-morpholinothieno[3,2-d]pyrimidin-6-yl)ethynyl)piperidin-1-yl)-5-methylhex-5-ene-1,4-dione], the IC50 is less than 10 nM.
In the case of `C=CC(=O)Nc1ccc(C(=O)N2CCN(c3cc(-c4cnc(N)nc4)nc(N4CCOCC4)c3)CC2)cc1` [XII-53, N-(4-(4-(2-(2-aminopyrimidin-5-yl)-6-morpholinopyridin-4-yl)piperazine-1-carbonyl)phenyl)acrylamide] it was 100 to 1000 nM; in that of `CC(C)=CC(=O)CCC(=O)N1CCN(Cc2cc(-c3cnc(N)nc3)nc(N3CCOCC3)c2)CC1` [XII-1, 1-(4-((2-(2-aminopyrimidin-5-yl)-6-morpholinopyridin-4-yl)methyl)piperazin-1-yl)-6-methylhept-5-ene-1,4-dione], 100 to 1000 nM; in that of `O=C(CCl)N1CCN(Cc2cc3nc(-c4cccc5[nH]ncc45)nc(N4CCOCC4)c3s2)CC1` [II-a-145, 1-(4-((2-(1H-indazol-4-yl)-4-morpholinothieno[3,2-d]pyrimidin-6-yl)methyl)piperazin-1-yl)-2-chloroethanone], 100 to 1000 nM.
